Measurements: ChEMBL document CHEMBL4665694, “Integrating the Impact of Lipophilicity on Potency and Pharmacokinetic Parameters Enables the Use of Diverse Chemical Space during Small Molecule Drug Optimization” (J Med Chem, 2020)

Tests used:
Type in all cases: ADME
[1] = Clearance in human
[2] = Unbound clearance in human
[3] = Volume of distribution at steady state in human; conditions: read-out: Vdss
[4] = Unbound volume of distribution at steady state in human
[5] = AUC in human administered as single dose
[6] = Unbound AUC in human administered as single dose
[7] = Fraction unbound in human
[8] = Half life in human
[9] = AUC at steady state in human administered as single dose
[10] = Unbound AUC at steady state in human administered as single dose

SMILES	clearance [1]	CL free [2]	Vd [3]	fVdss [4]	AUC [5]	fAUC [6]	fraction unbound [7]	half-life [8]	AUC [9]	fAUC [10]
OC(Cn1cncn1)(Cn1cncn1)c1ccc(F)cc1F [FLUCONAZOLE]	0.9 mL/min/kg	1 mL/min/kg	0.9 L/kg	1 L/kg	100000 ng·h/mL	90000 ng·h/mL	0.9	32 h	–	–
CCC(C)n1ncn(-c2ccc(N3CCN(c4ccc(OCC5COC(Cn6cncn6)(c6ccc(Cl)cc6Cl)O5)cc4)CC3)cc2)c1=O (stereo unspecified) [ITRACONAZOLE]	5.4 mL/min/kg	> 2700 mL/min/kg	11 L/kg	> 5000 L/kg	–	–	≤ 0.002	23 h	23000 ng·h/mL	50 ng·h/mL
